Patent EP0070049A1, “Derivative of acetylsalicylic acid having an analgetic, antipyretic, antiphlogistic and bronchosecretolytic activity” (UNIONE CHIMICA MEDICAMENTI- DIFME-S.p.A., priority 1981, dated 1983)

How the values were obtained:
[1] = system: arbre bronchial de rats Wistar; assay: Bronchosecretolytic activity: pulmonary excretion of fluorescein (Mawatari); assay type: in vivo; conditions: rats Wistar, 101,8 mg/Kg
Description: L'activité bronchosécrétolytique de l'acétylsalicylate de 2(o-méthoxy-phénoxy)éthanol a été évaluée en comparaison avec celle du gaïacoléthanol, sur la base de la mesure des variations de la quantité d'indicateur (fluorescéine) trouvée dans l'arbre bronchial de rats Wistar, recueillie au moyen d'un système de lavage standardisé, après injection parentérale de l'indicateur, et mesurée au moyen d'un spectrofluorométre, suivant la méthode décrite par H.Mawatari ("Expérimental studies on the expectorant action of several drugs", Kagoshima Daigakeu Igakeu Zasshi, volume 27, page 561, 1976). Les résultats de l'élaboration statistique des épreuves sont recueillis dans le suivant tableau 4,dans lequel l' excrétion pulmonaire de fluorescéine est exprimée en microgrammes ± la déviation standard, soit dans la quantité totale trouvée, soit dans la quantité pour-cent rapportée à 100 g de poids corporel des rats. Entre parenthèses sont indiquées les valeurs de l'augmentation pour-cent par rapport aux contrôles. Pour les autres valeurs est valable ce qui été précisé en relation au Tableau 1.

[2] = system: rats; conditions: rat, in vivo, 500 mg/kg
Description: La toxicité subaiguë de l'acétylsalicylate de 2(o-méthoxy-phénoxy)éthanol a été évaluée en comparaison avec celle de l'acide acétylsalicylique en administrant à des rats, par voie orale, des doses journalières de substance pour 10 jours, et en relevant le nombre des animaux morts, la diminution moyenne de poids des animaux traités et l'incidence des lésions gastriques relevées, distinguées en simple hyperémie, hyperémie accompagnée par hémorragie et hémorragie accompagnée par ulcérations. Les résultats des épreuves sont indiqués dans le Tableau 5, dans lequel la dose de substance administrée est exprimée en mg de substance par kg de poids corporel et par jour, et la diminution moyenne de poids corporel à la fin du traitement est exprimée en grammes.

[3] = system: convulsions abdominales (writhings) induites dans le souris par une injection intrapéritonéale d'acide acétique; assay: Acetic acid writhing test (analgesic activity, Koster and Anderson); assay type: in vivo; conditions: for Frequence writhings: souris, 60 minutes après l'administration, ± déviation standard
Description: L'activité analgésique de l'acétylsalicylate de 2(o-méthoxy-phénoxy)éthanol a été évaluée en comparaison avec celle de l'acide acétylsalicylique sur la base de la fréquence des convulsions abdominales (writhings) induites dans le souris par une injection intrapéritonéale d'acide acétique, suivant la technique décrite par Koster et Anderson (Fed. Proc., volume 18, page 412, 1959). Les résultats de l'élaboration statistique des épreuves sont indiqués dans le suivant Tableau 3, dans lequel la fréquence des convulsions est indiquée comme nombre de convulsions par minute ± la déviation standard, et a été mesurée 60 minutes après l'administration; pour les autres valeurs est valable ce qui a été spécifié en relation avec le Tableau 1.

[4] = system: température corporelle, augmentée par l'injection intraveineuse de nucléinate de sodium dans le lapin; assay: Antipyretic activity: rise in body temperature induced by intravenous sodium nucleinate; assay type: in vivo; conditions: for Augmentation temperature corporelle - °C ± d.s. après 1 heure: 1 heure après l'administration; for Augmentation temperature corporelle - °C ± d.s. après 2 heures: 2 heures après l'administration; for Augmentation temperature corporelle - °C ± d.s. après 3 heures: 3 heures après l'administration; for Augmentation temperature corporelle - °C ± d.s. après 4 heures: 4 heures après l'administration
Description: L'activité antipyrétique de l'acétylsalicylate de 2(o-méthoxy-phénoxy)éthanol a été evaluée en comparaison avec celle de l'acide acétylsalicylique suivant la méthode, universellement employée, de la mesure de la variation de la température corporelle, augmentée par 1' injection intraveineuse de nucléinate de sodium dans le lapin. Les résultats de l'élaboration statistique des épreuves sont indiqués dans le suivant Tableau 2, dans lequel l'augmentation de la température corporelle est indiquée en °C ± la déviation standard, et a été mesurée 1, 2, 3 et 4 heures après l'administration; pour les autres valeurs est valable ce qui a été spécifié en relation avec le Tableau 1.

[5] = system: oedème induit par carraghénine injectée dans la patte de rats; assay: Carrageenan-induced rat paw oedema (antiphlogistic activity, Winter et al); assay type: in vivo; conditions: voie orale; for Volume de l'oedème - ml ± d.s. après 3 heures: 3 heures après le traitement oedémigène; for Volume de l'oedème - ml ± d.s. après 6 heures: 6 heures après le traitement oedémigène
Description: L'activité antiphlogistique de l'acétylsalicylate de 2(o-méthoxy-phénoxy) éthanol a été évaluée en comparaison avec celle de l'acide acétylsalicylique sur la base de la variation de volume de l'oedème induit par carraghénine injectée dans la patte de rats, suivant la technique décrite par Winter et al (Proc. Soc. Exp. Biol. Med., volume III, page 544, 1962). Les résultats de l'élaboration des épreuves sont indiqués dans le Tableau 1, dans lequel le volume de l'oedème est indiqué en millilitres z la déviation standard, et il a été mesuré 3, 4,5 et 6 heures après le traitement oedémigène; la dose de substance est indiquée en milligrammes de substance administrée par voie orale pour chaque kilogramme de poids corporel des rats; les valeurs marquées par * correspondent à une probabilité d'erreur p < 0,05, les valeurs marquées correspondent à une probabilité d'erreur p < 0,01, calculées sur les valeurs des contrôles, et les valeurs indiquées entre parenthèses indiquent l'inhibition en pour-cent calculée par rapport aux contrôles.

COc1ccccc1OCCO [Gaïacol-éthanol, gaïacoléthanol, reference compound]
augmentation pour-cent par rapport aux contrôles (excrétion pulmonaire de fluorescéine, quantité totale) [1]: +72,2 pour-cent | Excrétion pulmonaire de fluorescéine Quantité pour-cent µg/100 g ([1]; rapportée à 100 g de poids corporel, ± déviation standard): 0,202 ± 0,034 µg/100 g | Excrétion pulmonaire de fluorescéine Quantité totale µg ([1]; ± déviation standard): 0,434 ± 0,064 µg

CC(=O)Oc1ccccc1C(=O)O [Acide acétyl-salicylique, acide acétylsalicylique, reference compound]
Lésions gastriques Hyperémie [2]: 4 | Lésions gastriques Hyperémie + hémorragie [2]: 3 | Lésions gastriques Hémorragie + ulcérations [2]: 2 | Nombre animaux morts [2]: 6 | Δ poids moyenne [2]: -30 grammes | inhibition at 100 mg/kg ([3]; 1 h): 30% | inhibition at 200 mg/kg ([3]; 1 h): 44% | Frequence writhings ([3]; 100 mg/Kg): *20,5 ± 6,7 convulsions par minute | Frequence writhings ([3]; 200 mg/Kg): **16,4 ± 5,8 convulsions par minute | inhibition en pour-cent calculée par rapport aux contrôles, après 1 heure ([4]; 100 mg/Kg): 40 pour-cent | Augmentation temperature corporelle - °C ± d.s. après 1 heure ([4]; 100 mg/Kg): 0,75 ± 0,16 °C | inhibition en pour-cent calculée par rapport aux contrôles, après 2 heures ([4]; 100 mg/Kg): 46 pour-cent | Augmentation temperature corporelle - °C ± d.s. après 2 heures ([4]; 100 mg/Kg): 0,78 ± 0,17 °C | inhibition en pour-cent calculée par rapport aux contrôles, après 3 heures ([4]; 100 mg/Kg): 43 pour-cent | Augmentation temperature corporelle - °C ± d.s. après 3 heures ([4]; 100 mg/Kg): 0,94 ± 0,12 °C | inhibition en pour-cent calculée par rapport aux contrôles, après 4 heures ([4]; 100 mg/Kg): 26 pour-cent | Augmentation temperature corporelle - °C ± d.s. après 4 heures ([4]; 100 mg/Kg): 0,55 ± 0,1 °C | inhibition en pour-cent calculée par rapport aux contrôles, après 1 heure ([4]; 200 mg/Kg): 50 pour-cent | Augmentation temperature corporelle - °C ± d.s. après 1 heure ([4]; 200 mg/Kg): 0,62 ± 0,13 °C | inhibition en pour-cent calculée par rapport aux contrôles, après 2 heures ([4]; 200 mg/Kg): 51 pour-cent | Augmentation temperature corporelle - °C ± d.s. après 2 heures ([4]; 200 mg/Kg): 0,71 ± 0,18 °C | inhibition en pour-cent calculée par rapport aux contrôles, après 3 heures ([4]; 200 mg/Kg): 43 pour-cent | Augmentation temperature corporelle - °C ± d.s. après 3 heures ([4]; 200 mg/Kg): 0,93 ± 0,16 °C | inhibition en pour-cent calculée par rapport aux contrôles, après 4 heures ([4]; 200 mg/Kg): 31 pour-cent | Augmentation temperature corporelle - °C ± d.s. après 4 heures ([4]; 200 mg/Kg): 0,52 ± 0,07 °C | inhibition en pour-cent calculée par rapport aux contrôles, après 3 heures ([5]; 100 mg/Kg): 44,0 pour-cent | Volume de l'oedème - ml ± d.s. après 3 heures ([5]; 100 mg/Kg): 0,380 ± 0,21 ml | inhibition en pour-cent calculée par rapport aux contrôles, après 4,5 heures ([5]; 100 mg/Kg, 4,5 heures): 35,0 pour-cent | Volume de l'oedème - ml ± d.s. après 4,5 heures ([5]; 100 mg/Kg, 4,5 heures après le traitement oedémigène): 0,395 ± 0,14 ml | inhibition en pour-cent calculée par rapport aux contrôles, après 6 heures ([5]; 100 mg/Kg): 41,0 pour-cent | Volume de l'oedème - ml ± d.s. après 6 heures ([5]; 100 mg/Kg): 0,285 ± 0,18 ml | inhibition en pour-cent calculée par rapport aux contrôles, après 3 heures ([5]; 200 mg/Kg): 56,5 pour-cent | Volume de l'oedème - ml ± d.s. après 3 heures ([5]; 200 mg/Kg): 0,297 ± 0,17 ml | inhibition en pour-cent calculée par rapport aux contrôles, après 4,5 heures ([5]; 200 mg/Kg, 4,5 heures): 39,0 pour-cent | Volume de l'oedème - ml ± d.s. après 4,5 heures ([5]; 200 mg/Kg, 4,5 heures après le traitement oedémigène): 0,370 ± 0,09 ml | inhibition en pour-cent calculée par rapport aux contrôles, après 6 heures ([5]; 200 mg/Kg): 43,0 pour-cent | Volume de l'oedème - ml ± d.s. après 6 heures ([5]; 200 mg/Kg): 0,275 ± 0,18 ml
